One assay has as its system AMPK. Put plainly: Measurement of AMPK activity by Western blot in C2C12 cells. It counts as cell-based. Also on record: key to AMPK activity (degree of phosphorylation of serine-79 and threonine-172): fold increase in threonine-172 phosphorylation; AMPK activity (degree of phosphorylation of serine-79): unit not given here. Conditions: 10 μM for 50 minutes; for AMPK activity (class: degree of phosphorylation of threonine-172): strong/mild/weak; for AMPK activity (degree of phosphorylation of serine-79 and threonine-172): no superscript: Western blot of serine-79 and threonine-172 phosphorylation; for AMPK activity (degree of phosphorylation of serine-79): footnote a: Western blot of serine-79 phosphorylation. On the procedure:
C2C12 cells were cultured and differentiated in the same manner as in Experimental Example 1. Treatment with the test materials was also performed in the same manner as in Experimental Example 1 (10 μM for 50 minutes). The culture medium was removed and the cells were washed for 2 times with PBS and protein extracts were obtained using a lysis buffer (50 mM tris-HCl, pH 7.4, 1% NP-40, 0.25% sodium deoxycholate, 150 mM NaCl, 1 mM EDTA, 1 mM PMSF, 1 mM sodium o-vanadate, 1 mM NaF, 1 μg/mL apronitin, 1 μg/mL leu-peptin, 1 μg/mL pepstatin). The AMPK activity was determined from Western blot analysis of the degree of phosphorylation of serine-79 […] acetyl CoA carboxylase and the degree of phosphorylation of threonine-172. The amount of ERK (extracellular signal regulated protein kinase) was confirmed by Western blot in order to quantify the proteins.
The result of Western blot analysis is given in Table 3 below, wherein “strong” means that the degree of phosphorylation of threonine-172 increased by 3 times or more, “mild” means that the degree of phosphorylation of threonine-172 increased by 1 to 3 times and “weak” means that the degree of phosphorylation of threonine-172 increased by less than 1 time.
For orientation: A western blot detects proteins with antibodies after separation by electrophoresis.

In a further assay the test system is C2C12 muscle cells. Put plainly: Analysis of glucose absorption (2-deoxyglucose) in differentiated C2C12 muscle cells. Type of assay: cell-based. Conditions: test materials 10 μM, times relative to control group. In short, it runs like this: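 Uptake of 0.2 μCi 2-deoxyglucose over 20 min, counted radiometrically in lysed cells. Before tracer, compounds (10 μM) were applied for 30 min to C2C12 cells differentiated 6 days in 1% serum and equilibrated 3 h in 5 mM glucose KRB.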

Structures are written as SMILES.

In the case of `CCSc1nc(NCCc2ccccc2)c2ccccc2n1` [Compound 29, (2-Ethylsulfanylquinazolino-4-yl)-phenethylamine], the “AMPK activity (class: degree of phosphorylation of threonine-172)” value in the assay with AMPK is “mild (“mild” means that the degree of phosphorylation of threonine-172 increased by 1 to 3 times)”. The Glucose absorption with C2C12 muscle cells is on record as 1.6.
Consider `COc1ccc(CNc2nc(-c3ccccc3)nc3ccccc23)c(OC)c1` [Compound 144, (2,4-Dimethoxybenzyl)-(2-phenylquinazolino-4-yl)-amine], for which, in the assay on AMPK, the “AMPK activity (degree of phosphorylation of serine-79 and threonine-172)” value was 2.1; the “AMPK activity (class: degree of phosphorylation of threonine-172)” value is reported as “strong (“strong” means that the degree of phosphorylation of threonine-172 increased by 3 times or more)”. The molecule also showed a Glucose absorption with C2C12 muscle cells of 1.3.
On to `Brc1ccc(CCNc2nc(-c3ccccc3)nc3ccccc23)cc1` [Compound 137, [2-(4-Bromophenyl)-ethyl]-(2-phenylquinazolino-4-yl)-amine], for which, in the assay on AMPK, the “AMPK activity (degree of phosphorylation of serine-79 and threonine-172)” value is 3.1; the “AMPK activity (class: degree of phosphorylation of threonine-172)” value is recorded as “strong (“strong” means that the degree of phosphorylation of threonine-172 increased by 3 times or more)”. The molecule also displayed a Glucose absorption in the assay on C2C12 muscle cells of 2.4.
With `CCOc1cc2ncnc(NCCCN3CCOCC3)c2cc1OCC` [Compound 15, (6,7-Diethoxyquinazolino-4-yl)-(3-morpholino-4-ylpropyl)-amine], the “AMPK activity (degree of phosphorylation of serine-79)” value in the assay with AMPK is listed as 2.3^a. The Glucose absorption with C2C12 muscle cells was determined as 0.8.
Turning to `C1=C(CCNc2nc(-c3ccccc3)nc3ccccc23)CCCC1` [Compound 131, (2-Cyclohex-1-enylethyl)-(2-phenylquinazolino-4-yl)-amine], in the assay with AMPK, the “AMPK activity (degree of phosphorylation of serine-79 and threonine-172)” value came out at 1.8; the “AMPK activity (class: degree of phosphorylation of threonine-172)” value is given as “strong (“strong” means that the degree of phosphorylation of threonine-172 increased by 3 times or more)”. The Glucose absorption in the assay on C2C12 muscle cells is 2.3.
As to `Cc1nc(NCc2ccccc2)c2ccccc2n1` [Compound 163, Benzyl-(2-methylquinazolino-4-yl)-amine], in the assay with AMPK, the “AMPK activity (degree of phosphorylation of serine-79 and threonine-172)” value came to 2.8; the “AMPK activity (class: degree of phosphorylation of threonine-172)” value is reported as “strong (“strong” means that the degree of phosphorylation of threonine-172 increased by 3 times or more)”. The molecule also showed a Glucose absorption in the assay on C2C12 muscle cells of 2.5.
Turning to `COc1cccc(CNc2nc(C3CC3)nc3ccccc23)c1` [Compound 383, (2-Cyclopropylquinazolino-4-yl)-(3-methoxybenzyl)-amine], the “AMPK activity (degree of phosphorylation of serine-79 and threonine-172)” value with AMPK was 2.2. The molecule also came in with a Glucose absorption in the assay on C2C12 muscle cells of 1.4.
On to `CC(C)c1nc(NCc2cccc(C(F)(F)F)c2)c2ccccc2n1` [Compound 178, (2-Isopropylquinazolino-4-yl)-(3-trifluoromethylbenzyl)-amine], for which, in the assay on AMPK, the “AMPK activity (degree of phosphorylation of serine-79 and threonine-172)” value was determined as 5.7; the “AMPK activity (class: degree of phosphorylation of threonine-172)” value is “strong (“strong” means that the degree of phosphorylation of threonine-172 increased by 3 times or more)”. The same molecule yielded a Glucose absorption with C2C12 muscle cells of 4.2.
For `c1ccc2c(NCc3ccc4c(c3)OCO4)nc(N3CCCCC3)nc2c1` [Compound 308, Benzo[1,3]dioxol-5-ylmethyl-(2-piperidino-1-ylquinazolino-4-yl)-amine], in the assay on AMPK, the “AMPK activity (degree of phosphorylation of serine-79 and threonine-172)” value is 2.2. Besides, in the assay with C2C12 muscle cells, the Glucose absorption amounted to 0.8.
As to `CC(C)Nc1nc(C(Cl)(Cl)Cl)nc2ccccc12` [Compound 2, Isopropyl-(2-trichloromethylquinazolino-4-yl)-amine], in the assay with AMPK, the “AMPK activity (degree of phosphorylation of serine-79)” value was 4.2^a. The molecule further showed a Glucose absorption in the assay with C2C12 muscle cells of 1.3.
Consider `COc1ccc(CNc2nc(C(C)C)nc3ccccc23)c(OC)c1` [Compound 271, (2,4-Dimethoxybenzyl)-(2-isopropylquinazolino-4-yl)-amine], for which, in the assay on AMPK, the “AMPK activity (degree of phosphorylation of serine-79 and threonine-172)” value was 2.4. The molecule further returned a Glucose absorption in the assay with C2C12 muscle cells of 0.8.
In the case of `COc1ccc(CNc2nc(C(C)C)nc3ccccc23)cc1OC` [Compound 324, (3,4-Dimethoxybenzyl)-(2-isopropylquinazolino-4-yl)-amine], the “AMPK activity (degree of phosphorylation of serine-79 and threonine-172)” value with AMPK is reported as 2.3. In addition, the Glucose absorption with C2C12 muscle cells was 1.3.
Consider `COc1ccc(CNc2nc(-c3ccccc3)nc3ccccc23)cc1OC` [Compound 118, (3,4-Dimethoxybenzyl)-(2-phenylquinazolino-4-yl)-amine], for which, in the assay on AMPK, the “AMPK activity (degree of phosphorylation of serine-79 and threonine-172)” value is 2.0; the “AMPK activity (class: degree of phosphorylation of threonine-172)” value is on record as “strong (“strong” means that the degree of phosphorylation of threonine-172 increased by 3 times or more)”. The molecule also yielded a Glucose absorption in the assay with C2C12 muscle cells of 2.1.
With `FC(F)(F)c1ccc(CNc2nc(-c3ccccc3)nc3ccccc23)cc1` [Compound 139, (2-Phenylquinazolino-4-yl)-(4-trifluoromethylbenzyl)-amine], in the assay with AMPK, the “AMPK activity (degree of phosphorylation of serine-79 and threonine-172)” value was 2.1; the “AMPK activity (class: degree of phosphorylation of threonine-172)” value is given as “strong (“strong” means that the degree of phosphorylation of threonine-172 increased by 3 times or more)”. This molecule also came in with a Glucose absorption in the assay on C2C12 muscle cells of 2.5.
With `COc1cc(CNc2nc(C(C)c3ccccc3)nc3ccccc23)cc(OC)c1OC` (centres unmarked) [Compound 378, [2-(1-Phenylethyl)-quinazolino-4-yl]-(3,4,5-trimethoxybenzyl)-amine], the “AMPK activity (degree of phosphorylation of serine-79 and threonine-172)” value in the assay on AMPK came to 4.7. Also, the Glucose absorption in the assay with C2C12 muscle cells is recorded as 0.9.
As to `CC(C)(C)c1nc(NCCc2ccccc2)c2ccccc2n1` [Compound 191, (2-tert-Butylquinazolino-4-yl)-phenethylamine], in the assay on AMPK, the “AMPK activity (degree of phosphorylation of serine-79 and threonine-172)” value is on record as 5.2; the “AMPK activity (class: degree of phosphorylation of threonine-172)” value is “strong (“strong” means that the degree of phosphorylation of threonine-172 increased by 3 times or more)”. The Glucose absorption with C2C12 muscle cells is recorded as 2.4.
On the same counts, the results for `Fc1ccc(CNc2nc(-c3ccccc3)nc3ccccc23)c(F)c1` [Compound 134, (2,4-Difluorobenzyl)-(2-phenylquinazolino-4-yl)-amine] are 1.8, “strong (“strong” means that the degree of phosphorylation of threonine-172 increased by 3 times or more)” and 2.6.
Regarding `COc1ccc(OC)c(CNc2nc(N3CCCCC3)nc3ccccc23)c1` [Compound 296, (2,5-Dimethoxybenzyl)-(2-piperidino-1-ylquinazolino-4-yl)-amine], the “AMPK activity (degree of phosphorylation of serine-79 and threonine-172)” value in the assay on AMPK is on record as 1.0. This molecule also displayed a Glucose absorption with C2C12 muscle cells of 0.9.
Taken in the same sequence, the figures for `COc1cccc(CNc2ncnc3ccccc23)c1OC` [Compound 408, (2,3-Dimethoxybenzyl)-quinazolino-4-ylamine] were 3.5 and 1.6.
For `c1ccc(CCCCNc2nc(-c3ccccn3)nc3ccccc23)cc1` [Compound 228, (4-Phenylbutyl)-(2-pyridino-2-ylquinazolino-4-yl)-amine], in the assay with AMPK, the “AMPK activity (degree of phosphorylation of serine-79 and threonine-172)” value came out at 7.9; the “AMPK activity (class: degree of phosphorylation of threonine-172)” value was “strong (“strong” means that the degree of phosphorylation of threonine-172 increased by 3 times or more)”. This molecule also showed a Glucose absorption with C2C12 muscle cells of 2.1.
Turning to `COc1ccccc1CNc1ncnc2ccccc12` [Compound 404, (2-Methoxybenzyl)-quinazolino-4-ylamine], in the assay on AMPK, the “AMPK activity (degree of phosphorylation of serine-79 and threonine-172)” value came to 1.9. Further, the Glucose absorption in the assay with C2C12 muscle cells is 2.1.
On the same counts, the results for `COc1cc(OC)c(CNc2ncnc3ccccc23)c(OC)c1` [Compound 414, Quinazolino-4-yl-(2,4,6-trimethoxybenzyl)-amine] are 2.9 and 1.5.
Take `COc1cccc(CNc2nc(C(OC)c3ccccc3)nc3ccccc23)c1` (centres unmarked) [Compound 361, (3-Methoxybenzyl)-[2-(methoxyphenylmethyl)-quinazolino-4-yl]-amine]: the “AMPK activity (degree of phosphorylation of serine-79 and threonine-172)” value in the assay on AMPK was determined as 2.1. The Glucose absorption in the assay with C2C12 muscle cells worked out at 1.3.
On to `COc1ccc(CNc2nc(N3CCCCC3)nc3ccccc23)cc1` [Compound 284, (4-Methoxybenzyl)-(2-piperidino-1-ylquinazolino-4-yl)-amine], for which the “AMPK activity (degree of phosphorylation of serine-79 and threonine-172)” value with AMPK was 1.4.
In the case of `COc1ccc(OC)c(CNc2nc(N3CCCC3)nc3ccccc23)c1` [Compound 295, (2,5-Dimethoxybenzyl)-(2-pyrrolidino-1-ylquinazolino-4-yl)-amine], the “AMPK activity (degree of phosphorylation of serine-79 and threonine-172)” value in the assay on AMPK worked out at 0.2.
In the case of `c1ccc2c(NCc3ccc4c(c3)OCO4)nc(C3CC3)nc2c1` [Compound 385, Benzo[1,3]dioxol-5-ylmethyl-(2-cyclopropylquinazolino-4-yl)-amine], in the assay on AMPK, the “AMPK activity (degree of phosphorylation of serine-79 and threonine-172)” value amounted to 2.8.

These data come from patent US20080207614A1, “QUINAZOLINE DERIVATIVES FOR THE TREATMENT AND PREVENTION OF DIABETES AND OBESITY” (SK CHEMICALS CO., LTD., priority 2004, published 2008).
